Data on 25 molecules can be found in paper PMC9855133, “Ligand Binding Properties of Odorant-Binding Protein OBP5 from Mus musculus” (Biology, 2022).

By stoichiometry N is commonly meant the number of molecules, sites or subunits per partner or assembly.

Data set [1] concerns the target T1, mOBP5 (Mus musculus, UniProt Q9D3H2).
T1 construct: composed of an N-terminal His6-tag, followed by mOBP5 (Ala17-Glu163); made in house; host or cells: E. coli M15 [pREP4]
T1 sequence (Q9D3H2 17-163): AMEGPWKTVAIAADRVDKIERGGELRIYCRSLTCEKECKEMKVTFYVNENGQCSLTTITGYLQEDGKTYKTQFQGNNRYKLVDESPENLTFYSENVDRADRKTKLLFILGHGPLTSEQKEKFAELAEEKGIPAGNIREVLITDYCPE
The data set is described as follows: Isothermal titration microcalorimetry (ITC). The following applies: 25 °C, 25 μM mOBP5, 250 μM odorant, phosphate buffer pH 7.5; for Ka (ITC): association constant determined by ITC: in M-1 (unit assumed); for Kd: read-out: Kd (µM) ITC: dissociation constant determined by ITC (1/Ka). The format is binding. The protocol: Isothermal titration microcalorimetry (ITC) experiments were carried out at 25 °C with a VP-ITC microcalorimeter (Malvern Panalytical, Palaiseau, France) as previously described. Before initiating the titration run, mOBP5 solutions (25 μM in 50 mM phosphate buffer, pH 7.5) were thoroughly degassed under vacuum. Ligand solutions (250 μM in 50 mM phosphate buffer, pH 7.5) were injected into one 3 µL aliquot, then 26 successive 10 μL aliquots. The duration of each injection was 20 s with a 210 s recovery time between injections. Heats of dilution determined in the absence of mOBP5 were subtracted from the titration data prior to curve fitting. Thermodynamic parameters were obtained by fitting the values to a single site binding model through nonlinear regression using Microcal Origin® software.

Data set [2] deals with T1, mOBP5. As to the kind of experiment: Competitive fluorescence binding assay (displacement of NPN from mOBP5). The conditions noted are these: for IC50 / Kd: 2 μM mOBP5, 10 μM NPN; for IC50: 20 °C, for very weak ligands an arbitrary value of 200 μM was assigned, read-out: IC50 (µM) Fluo: concentration of competitor ligand causing a decrease of NPN fluorescence of half-maximal intensity; for Kd: calculated as Kd = [IC50]/(1 + [L]/Kd NPN), average of three experiments, read-out: Kd (µM) Fluo: dissociation constant determined by fluorescence; for fluorescence intensity of the mOBP5-NPN complex in the presence of odorant: competitive curves, Figure 3C. As to the method:
(§1) Competitive ligand binding experiments were performed using N-phenyl-1-naphthylamine (NPN) as a fluorescent probe as previously described. All measurements were conducted at 20 °C using a Cary Eclipse spectrofluorimeter (Agilent Technologies, Santa Clara, CA, United States) equipped with a Peltier temperature-control unit with a 1 cm light path, quartz cuvette, and 5 nm slits for both excitation and emission. […] The excitation wavelength of NPN was 337 nm, and the fluorescence emission was recorded between 350 and 600 nm. The value of the dissociation constant (Kd) NPN was calculated using SigmaPlot 12.5 software (Systat Software, Inc., San Jose, CA, USA), as previously described.
Competitive binding assays were carried out with 2 μM mOBP5 incubated with 10 μM NPN, as previously described. After the addition of the competitor compound and the stabilization of the signal (3–4 min), the fluorescence spectrum was recorded. The IC50 value is the concentration of odorant, which causes a fluorescence decrease in half-maximal intensity. The IC50 values were calculated using SigmaPlot software. Dissociation constants (Kd) for odorant competitors were calculated as Kd = [IC50]/(1 + [L]/Kd NPN), with [L] being the free fluorophore concentration and Kd being the OBP-fluorophore complex dissociation constant. The reported Kd values are the average of three measurements performed in three independent experiments.

Data set [3] concerns the target T1, mOBP5. The data set is described as follows: Fluorescence titration of mOBP5 with the probe NPN. The following applies: 2 µM mOBP5, 50 mM sodium phosphate pH 7.5, 20 °C, excitation 337 nm; read-out: dissociation constant (Kd) of NPN. It counts as binding. The protocol:
as §1

Data set [4] deals with the molecule itself. As to the kind of experiment: SEC; calibrated Superdex 75 10/300 GL, room temperature, 100 mM potassium phosphate, 150 mM NaCl, pH 7.5, 1 mL/min; purified mOBP5 at 0.5 mg/mL. In general terms: In gel filtration, larger molecules generally elute earlier.

On to `CC(C)=CCCC(C)=CC=O` (mixture of isomers) [citral], for which, at mOBP5 [1], the “N ITC: binding stoichiometry per monomer determined by ITC” value (“N ITC: binding stoichiometry per monomer” for short) is listed as 0.65, the “Ka (ITC): association constant determined by ITC” value (“Ka (ITC): association constant” below) turned out to be 1.3E+07 and the Kd was determined as 0.076 µM. Further, at mOBP5 [2], the IC50 stood at 2.5 µM and the Kd is 0.61 µM.

With `C=C(C)C1CC=C(C)C(=O)C1` (single isomer, unassigned; (-)) [(-)-carvone], at mOBP5 [2], the IC50 worked out at 1.1 µM, the Kd is 0.28 µM and the “fluorescence intensity of the mOBP5-NPN complex in the presence of odorant” value (“fluorescence intensity” for short) is listed as “drastically reduced”.

`CCCCCCCO` [1-heptanol]: at mOBP5 [2], the IC50 was found to be 2.4 µM and the Kd was 0.59 µM.

`CCCCCCO` [1-hexanol]: the IC50 at mOBP5 [2] is 40 µM.

On to `CCCCCCCCO` [1-octanol], for which, on mOBP5 [1], the “N ITC: binding stoichiometry per monomer” value worked out at 0.71, the “Ka (ITC): association constant” value is listed as 3.6E+07 and the Kd was 0.028 µM. Further, on mOBP5 [2], the IC50 is 1.1 µM, the Kd is 0.29 µM and the “fluorescence intensity” value is listed as “drastically reduced”.

In the case of `CCCCCCCCC(C)=O` [2-decanone], on mOBP5 [2], the IC50 was 1.2 µM, the Kd was 0.31 µM and the “fluorescence intensity” value is “drastically reduced”.

Take `COc1nccnc1CC(C)C` [3-iso-butyl-2-methoxy-pyrazine]: at mOBP5 [2], the IC50 amounted to 7.2 µM and the Kd was 1.3 µM.

`COc1ccc(C=O)cc1` [4-methoxy-benzaldehyde]: the IC50 at mOBP5 [2] came out at 40 µM.

Take `C=C(C)[C@H]1CC=C(C)C(=O)C1` [(+)-carvone]: at mOBP5 [1], the “N ITC: binding stoichiometry per monomer” value came out at 0.47, the “Ka (ITC): association constant” value is 8.7E+06 and the Kd was 0.115 µM. At mOBP5 [2], the IC50 came to 1 µM, the Kd is 0.28 µM and the “fluorescence intensity” value was “drastically reduced”.

On to `c1ccc(Nc2cccc3ccccc23)cc1` [NPN, N-phenyl-1-naphthylamine], for which the Kd at mOBP5 [3] came out at 3330 ± 170 nM.

In the case of `CC12CCC(CC1=O)C2(C)C` (stereo not drawn) [camphor], at mOBP5 [2], the IC50 was determined as 10.4 µM and the Kd was 1.6 µM.

As to `CC12CCC(CC1)C(C)(C)O2` [cineole], at mOBP5 [2], the IC50 was found to be 40 µM.

As to `CCCC(=O)OCC` [ethyl butyrate], the IC50 at mOBP5 [2] was 40 µM.

For `CC(C)=CCC/C(C)=C/CO` [geraniol], on mOBP5 [1], the “N ITC: binding stoichiometry per monomer” value is reported as 0.71, the “Ka (ITC): association constant” value came to 2.5E+07 and the Kd turned out to be 0.04 µM. In addition, at mOBP5 [2], the IC50 came out at 0.7 µM, the Kd is 0.19 µM and the “fluorescence intensity” value is reported as “drastically reduced”.

For `CC(=O)OCCC(C)C` [isoamyl acetate], on mOBP5 [1], the “N ITC: binding stoichiometry per monomer” value was 0.87, the “Ka (ITC): association constant” value is on record as 8.6E+06 and the Kd amounted to 0.116 µM. At mOBP5 [2], the IC50 was 2.5 µM and the Kd is 0.6 µM.

Turning to `CC(C=O)Cc1ccc(C(C)(C)C)cc1` (stereo not drawn) [lilialdehyde], on mOBP5 [2], the IC50 came out at 1.4 µM, the Kd is 0.38 µM and the “fluorescence intensity” value was “drastically reduced”.

Turning to `C=CC(C)(O)CCC=C(C)C` (stereo not drawn) [linalool], on mOBP5 [2], the IC50 is 1.1 µM, the Kd is 0.3 µM and the “fluorescence intensity” value is “drastically reduced”.

For `CC1CCC(C(C)C)C(O)C1` (stereo not drawn) [menthol], at mOBP5 [2], the IC50 came out at 1.5 µM, the Kd is 0.38 µM and the “fluorescence intensity” value is “drastically reduced”.

On to `CC(C)[C@@H]1CC[C@@H](C)CC1=O` [menthone], for which, at mOBP5 [1], the “N ITC: binding stoichiometry per monomer” value worked out at 0.58, the “Ka (ITC): association constant” value is given as 1.8E+07 and the Kd amounted to 0.055 µM. Moreover, on mOBP5 [2], the IC50 turned out to be 0.8 µM, the Kd is 0.23 µM and the “fluorescence intensity” value is recorded as “drastically reduced”.

Take `CCCCCCCC=O` [octanal]: at mOBP5 [2], the IC50 was 1.3 µM, the Kd was 0.34 µM and the “fluorescence intensity” value is on record as “drastically reduced”.

On to `Cc1ccc(C(C)C)c(O)c1` [thymol], for which the IC50 on mOBP5 [2] worked out at 40 µM.

With `CC1=CCC2CC1C2(C)C` (stereo not drawn) [α-pinene], on mOBP5 [2], the IC50 was determined as 0.9 µM, the Kd is 0.24 µM and the “fluorescence intensity” value was “drastically reduced”.

On to `CC(=O)/C=C/C1=C(C)CCCC1(C)C` [β-ionone], for which, on mOBP5 [2], the IC50 was 3 µM and the Kd is 0.71 µM.

Regarding `CCCCCCC1CCC(=O)O1` (stereo not drawn) [γ-decalactone], at mOBP5 [2], the IC50 turned out to be 2.4 µM and the Kd was 0.58 µM.

B1: Mus musculus odorant-binding protein OBP5 (mOBP5), recombinant His6-tagged (natural protein, UniProt Q9D3H2 17-163, looked up)
chain: T1 sequence (Q9D3H2 17-163)
notes: Expressed from pQE31 (BamHI/HindIII); also called mOBP1a; source: E. coli M15 [pREP4], purified (HisTrap Ni2+-chelating column, dialysis); not shown: His6, N-terminal, kept
B1: the “stoichiometry N” value in data set [4] was determined as 2.
